From ChEMBL document CHEMBL6114949, “Synthesis and physiological effects of new 4-aminophenol derivatives as paracetamol analogues” (Bioorg Med Chem Lett, 2025)
Active and inactive are the calls of the source. The calls are words filed in the database; no cut-off is given here.

Columns and labels:
[1] = Hepatotoxicity in zymosan-induced rat arthritis model assessed as effect on sinusoids arrangement at 150 mg/kg, ig administered once daily for 7 days by hematoxylin-eosin staining based histological analysis; format: toxicity, organism-based, Liver; conditions: in vivo, po, 168 h, time 7 day
Rattus norvegicus [2] = assay: Antipyretic activity against LPS-induced polyphasic febrile response in rats assessed as suppression of rise in core body temperature at 150 mg/kg, po treated 40 mins prior to LPS addition and measured after 160 mins relative to control; format: functional; conditions: time 200 min, 3.333 h
[3] = Hepatotoxicity in zymosan-induced rat arthritis model assessed as change in shape of liver central veins at 150 mg/kg, ig administered once daily for 7 days by hematoxylin-eosin staining based histological analysis; format: toxicity, organism-based; conditions: in vivo, po, 168 h, time 7 day
Rattus norvegicus [4] = assay: Antipyretic activity against LPS-induced polyphasic febrile response in rats assessed as change in core body temperature at 150 mg/kg, po treated 40 mins prior to LPS addition and measured after 160 mins during phase 1 (reference value: 0.85 deg C); format: functional; conditions: time 200 min, 3.333 h
Rattus norvegicus [5] = assay: Antipyretic activity against LPS-induced polyphasic febrile response in rats assessed as return of body temperature to background value at 150 mg/kg, po treated 40 mins prior to LPS addition and measured after 235 mins; format: functional, organism-based; conditions: time 275.0 min
[6] = Hepatotoxicity in zymosan-induced rat arthritis model assessed as change in hepatocyte nucleus size at 150 mg/kg, ig administered once daily for 7 days by hematoxylin-eosin staining based histological analysis; format: toxicity, organism-based, Liver; conditions: in vivo, po, 168 h, time 7 day
Rattus norvegicus [7] = assay: Antinociceptive activity in zymosan-induced rat model of thermal nociceptive hypersensitivity assessed as nociceptive response inhibition at 150 mg/kg, ig administered once daily for 7 days and measured 1 hr post-zymosan challenge on day 7 by hot-plate test (reference value: -42.4%); format: functional; conditions: po, 168 h, time 7 day
[8] = Hepatotoxicity in zymosan-induced rat arthritis model assessed as change in hepatocyte shape at 150 mg/kg, ig administered once daily for 7 days by hematoxylin-eosin staining based histological analysis; format: toxicity, organism-based, Liver; conditions: in vivo, po, 168 h, time 7 day
Rattus norvegicus [9] = assay: Antinociceptive activity in zymosan-induced rat arthritis model assessed as nociceptive response inhibition at 150 mg/kg, ig administered once daily for 7 days and measured 1 hr post-zymosan challenge on day 7 by Randall-Selitto test (reference value: -34.6%); format: functional; conditions: po, 168 h, time 7 day
[10] = Hepatotoxicity in zymosan-induced rat arthritis model assessed as appearance of vacuoles in hepatocyte cytoplasm at 150 mg/kg, ig administered once daily for 7 days by hematoxylin-eosin staining based histological analysis; format: toxicity, organism-based, Liver; conditions: in vivo, po, 168 h, time 7 day
[11] = Hepatotoxicity in zymosan-induced rat arthritis model assessed as effect on sinusoids elongation at 150 mg/kg, ig administered once daily for 7 days by hematoxylin-eosin staining based histological analysis; format: toxicity, organism-based, Liver; conditions: in vivo, po, 168 h, time 7 day
[12] = Hepatotoxicity in zymosan-induced rat arthritis model assessed as change in hepatocyte cytoplasmic appearance at 150 mg/kg, ig administered once daily for 7 days by hematoxylin-eosin staining based histological analysis; format: toxicity, organism-based, Liver; conditions: in vivo, po, 168 h, time 7 day
[13] = Hepatotoxicity in zymosan-induced rat arthritis model assessed as disruption of hepatocyte membrane at 150 mg/kg, ig administered once daily for 7 days by hematoxylin-eosin staining based histological analysis; format: toxicity, organism-based, Liver; conditions: in vivo, po, 168 h, time 7 day
[14] = Hepatotoxicity in zymosan-induced rat arthritis model assessed as effect on beam structure of liver at 150 mg/kg, ig administered once daily for 7 days by hematoxylin-eosin staining based histological analysis; format: toxicity, organism-based; conditions: in vivo, po, 168 h, time 7 day
[15] = Hepatotoxicity in zymosan-induced rat arthritis model assessed as change in shape of liver portal tracts at 150 mg/kg, ig administered once daily for 7 days by hematoxylin-eosin staining based histological analysis; format: toxicity, organism-based; conditions: in vivo, po, 168 h, time 7 day
[16] = Hepatotoxicity in zymosan-induced rat arthritis model assessed as change in hepatocyte karyoplasm at 150 mg/kg, ig administered once daily for 7 days by hematoxylin-eosin staining based histological analysis; format: toxicity, organism-based, Liver; conditions: in vivo, po, 168 h, time 7 day
[17] = Hepatotoxicity in zymosan-induced rat arthritis model assessed as effect on general architecture of liver at 150 mg/kg, ig administered once daily for 7 days by hematoxylin-eosin staining based histological analysis; format: toxicity, organism-based; conditions: in vivo, po, 168 h, time 7 day
Rattus norvegicus [18] = assay: Antipyretic activity against LPS-induced polyphasic febrile response in rats assessed as suppression of rise in core body temperature at 215 mg/kg, po treated 40 mins prior to LPS addition and measured after 10 mins; format: functional, organism-based; conditions: time 50.0 min
[19] = Hepatotoxicity in zymosan-induced rat arthritis model assessed as change in shape of liver portal tracts at 215 mg/kg, ig administered once daily for 7 days by hematoxylin-eosin staining based histological analysis; format: toxicity, organism-based; conditions: in vivo, po, 168 h, time 7 day
Rattus norvegicus [20] = assay: Antinociceptive activity in zymosan-induced rat arthritis model assessed as nociceptive response inhibition at 215 mg/kg, ig administered once daily for 7 days and measured 1 hr post-zymosan challenge on day 7 by Randall-Selitto test (reference value: -34.6%); format: functional; conditions: po, 168 h, time 7 day
[21] = Hepatotoxicity in zymosan-induced rat arthritis model assessed as effect on beam structure of liver at 215 mg/kg, ig administered once daily for 7 days by hematoxylin-eosin staining based histological analysis; format: toxicity, organism-based; conditions: in vivo, po, 168 h, time 7 day
Rattus norvegicus [22] = assay: Antipyretic activity against LPS-induced polyphasic febrile response in rats assessed as suppression of rise in core body temperature at 215 mg/kg, po treated 40 mins prior to LPS addition and measured after 160 mins relative to control; format: functional; conditions: time 200 min, 3.333 h
[23] = Hepatotoxicity in zymosan-induced rat arthritis model assessed as change in hepatocyte shape at 215 mg/kg, ig administered once daily for 7 days by hematoxylin-eosin staining based histological analysis; format: toxicity, organism-based, Liver; conditions: in vivo, po, 168 h, time 7 day
[24] = Hepatotoxicity in zymosan-induced rat arthritis model assessed as effect on sinusoids arrangement at 215 mg/kg, ig administered once daily for 7 days by hematoxylin-eosin staining based histological analysis; format: toxicity, organism-based, Liver; conditions: in vivo, po, 168 h, time 7 day
Rattus norvegicus [25] = assay: Antipyretic activity against LPS-induced polyphasic febrile response in rats assessed as return of body temperature to background value at 215 mg/kg, po treated 40 mins prior to LPS addition and measured after 190 mins; format: functional, organism-based; conditions: time 230.0 min
[26] = Hepatotoxicity in zymosan-induced rat arthritis model assessed as change in hepatocyte nucleus size at 215 mg/kg, ig administered once daily for 7 days by hematoxylin-eosin staining based histological analysis; format: toxicity, organism-based, Liver; conditions: in vivo, po, 168 h, time 7 day
[27] = Hepatotoxicity in zymosan-induced rat arthritis model assessed as disruption of hepatocyte membrane at 215 mg/kg, ig administered once daily for 7 days by hematoxylin-eosin staining based histological analysis; format: toxicity, organism-based, Liver; conditions: in vivo, po, 168 h, time 7 day
[28] = Hepatotoxicity in zymosan-induced rat arthritis model assessed as change in hepatocyte karyoplasm at 215 mg/kg, ig administered once daily for 7 days by hematoxylin-eosin staining based histological analysis; format: toxicity, organism-based, Liver; conditions: in vivo, po, 168 h, time 7 day
[29] = Hepatotoxicity in zymosan-induced rat arthritis model assessed as effect on general architecture of liver at 215 mg/kg, ig administered once daily for 7 days by hematoxylin-eosin staining based histological analysis; format: toxicity, organism-based; conditions: in vivo, po, 168 h, time 7 day
[30] = Hepatotoxicity in zymosan-induced rat arthritis model assessed as appearance of vacuoles in hepatocyte cytoplasm at 215 mg/kg, ig administered once daily for 7 days by hematoxylin-eosin staining based histological analysis; format: toxicity, organism-based, Liver; conditions: in vivo, po, 168 h, time 7 day
Rattus norvegicus [31] = assay: Antipyretic activity against LPS-induced polyphasic febrile response in rats assessed as change in core body temperature at 215 mg/kg, po treated 40 mins prior to LPS addition and measured after 160 mins during phase 1 (reference value: 0.85 deg C); format: functional, organism-based; conditions: time 200.0 min
Rattus norvegicus [32] = assay: Antinociceptive activity in zymosan-induced rat model of thermal nociceptive hypersensitivity assessed as nociceptive response inhibition at 215 mg/kg, ig administered once daily for 7 days and measured 1 hr post-zymosan challenge on day 7 by hot-plate test (reference value: -42.4%); format: functional; conditions: po, 168 h, time 7 day
[33] = Hepatotoxicity in zymosan-induced rat arthritis model assessed as change in shape of liver central veins at 215 mg/kg, ig administered once daily for 7 days by hematoxylin-eosin staining based histological analysis; format: toxicity, organism-based; conditions: in vivo, po, 168 h, time 7 day
[34] = Hepatotoxicity in zymosan-induced rat arthritis model assessed as change in hepatocyte cytoplasmic appearance at 215 mg/kg, ig administered once daily for 7 days by hematoxylin-eosin staining based histological analysis; format: toxicity, organism-based, Liver; conditions: in vivo, po, 168 h, time 7 day
[35] = Hepatotoxicity in zymosan-induced rat arthritis model assessed as effect on sinusoids elongation at 215 mg/kg, ig administered once daily for 7 days by hematoxylin-eosin staining based histological analysis; format: toxicity, organism-based, Liver; conditions: in vivo, po, 168 h, time 7 day

With `CCCCCCCC(=O)Nc1ccc(OCC(=O)O)cc1` the Activity [1] was “Non-toxic”, the “fold change (FC)” value (Rattus norvegicus [2]) was 3 and the Activity [3] was “Non-toxic”. The T (Rattus norvegicus [4]) was 0.28 °C, the Activity (Rattus norvegicus [5]) was “Active” and the Activity [6] was “Non-toxic”. For the same compound, the inhibition in vivo at 150 mg/kg (Rattus norvegicus [7]) was 8.5%, the Activity [8] was “Non-toxic” and the inhibition in vivo at 150 mg/kg (Rattus norvegicus [9]) was 21.3%. For the same compound, the Activity [10] was “Non-toxic”, the Activity [11] was “Non-toxic” and the Activity [12] was “Non-toxic”. The Activity [13] was “Non-toxic”, the Activity [14] was “Non-toxic” and the Activity [15] was “Non-toxic”. For the same compound, the Activity [16] was “Non-toxic” and the Activity [17] was “Non-toxic”.

With `CCCCCCCCCCCCCCCC(=O)Nc1ccc(OCC(=O)O)cc1` the Activity (Rattus norvegicus [18]) was “Active”, the Activity [19] was “Non-toxic” and the inhibition in vivo at 215 mg/kg (Rattus norvegicus [20]) was 21.7%. For the same compound, the Activity [21] was “Non-toxic”, the “fold change (FC)” value (Rattus norvegicus [22]) was 3 and the Activity [23] was “Non-toxic”. For the same compound, the Activity [24] was “Non-toxic”, the Activity (Rattus norvegicus [25]) was “Active” and the Activity [26] was “Non-toxic”. The Activity [27] was “Non-toxic”, the Activity [28] was “Non-toxic” and the Activity [29] was “Non-toxic”. The Activity [30] was “Non-toxic”, the ΔTm (Rattus norvegicus [31]) was 0.28 °C and the inhibition in vivo at 215 mg/kg (Rattus norvegicus [32]) was 42.2%. For the same compound, the Activity [33] was “Non-toxic”, the Activity [34] was “Non-toxic” and the Activity [35] was “Non-toxic”.
